Assay results: the NIST ThermoML archive (doi:10.1021/acs.jced.6b00688)

Test: xn = mol fraction of the nth substance listed
Settings: 100 kPa, Liquid; for mass density: Vibrating tube method; for viscosity: Falling or rolling sphere viscometry

CCCCCCCO [heptan-1-ol] + CCCCCCCCCCCC
Settings	mass density, 313.15 K [kg/m3]	mass density, 318.15 K [kg/m3]	mass density, 323.15 K [kg/m3]	mass density, 328.15 K [kg/m3]	mass density, 333.15 K [kg/m3]	viscosity, 318.15 K [mPa·s]	viscosity, 323.15 K [mPa·s]	viscosity, 328.15 K [mPa·s]	viscosity, 333.15 K [mPa·s]
x2 = 0.0998	796.48	792.81	789.12	785.39	781.62	2.573	2.266	2.006	1.785
x2 = 0.2005	786.16	782.46	778.74	774.97	771.18	2.134	1.896	1.694	1.522
x2 = 0.302	776.66	772.94	769.19	765.4	761.59	1.795	1.612	1.454	1.317
x2 = 0.3991	768.72	764.98	761.22	757.43	753.6	1.566	1.417	1.288	1.175
x2 = 0.4989	761.28	757.54	753.77	749.97	746.14	1.388	1.265	1.158	1.063
x2 = 0.5994	754.63	750.88	747.11	743.31	739.49	1.247	1.143	1.051	0.97
x2 = 0.6975	748.76	745.01	741.23	737.44	733.61	1.145	1.054	0.974	0.902
x2 = 0.7959	743.42	739.67	735.9	732.12	728.31	1.066	0.986	0.915	0.851
x2 = 0.8984	738.43	734.71	730.96	727.21	723.43	0.999	0.928	0.864	0.807
